Laboratory results reported in PubChem BioAssay AID1996.
In brackets after ≈: the same amount, converted by molar mass.

Settings: buffer; pH 7.4; 200.0 µM

SMILES | solubility kinetic [µg/mL]
O=C(Nc1nc2cc3c(cc2s1)OCO3)C1CC1 | < 0.3
CC(=O)Nc1sc(-c2ccc(Cl)cc2)nc1-c1ccccc1 | < 0.4
COc1ccc(C(=O)Nc2nc3ccccc3s2)c(OC)c1 | 1 (≈ 3.18 µM)
COc1ccc(C(CNC(=O)Cc2c(F)cccc2Cl)N2CCCCC2)cc1 (configuration not stated) | 59.1 (≈ 146 µM)
Cc1nnc(SCC(=O)N(C)c2ccccc2)n1-n1cccc1 | > 49.1
CCOc1ccc(-c2csc3nc[nH]c(=O)c23)cc1 | 18.9 (≈ 69.4 µM)
O=C(CN1C(=O)NC2(CCCCCCC2)C1=O)NCc1ccc(Cl)cc1 | 9.9 (≈ 26.2 µM)
Cc1ccc(N2C(=O)C(Cl)=C(N3CCCCCC3)C2=O)cc1 | 10.6 (≈ 33.2 µM)
Cc1cc(=O)[nH]c(SCC(=O)Nc2ccc3c(c2)CCC3)c1C#N | 17.7 (≈ 52.1 µM)
C/C=C/c1ccc(OCC(=O)NCc2ccccc2OC)c(OC)c1 | 2.9 (≈ 8.49 µM)
O=[N+]([O-])c1cc(Cl)ccc1NCCc1ccccn1 | 28.7 (≈ 103 µM)
CCOCCCn1cnc2c3cc(F)ccc3n(C)c2c1=O | 10.4 (≈ 34.3 µM)
COc1cc2c(cc1OC)C(c1ccc(C)cc1)NC(=O)C2 (configuration not stated) | 42.5 (≈ 143 µM)
CC(=O)c1ccc(O)c(CSC2=NCCS2)c1 | 35.2 (≈ 132 µM)
C=CCc1cccc(C=Nc2c[nH]c(=O)[nH]c2=O)c1O | 8.4 (≈ 31 µM)
O=[N+]([O-])c1cc(Cl)ccc1N1CCOCC1 | 24.4 (≈ 101 µM)
O=C(CCl)Nc1cccc(Oc2cnccn2)c1 | 39.4 (≈ 149 µM)
COc1ccc(/C=C/C(=O)NCCCNC(=O)/C=C/c2ccc(OC)c(OC)c2)cc1OC | 60 (≈ 132 µM)
OCC1(Cc2ccccc2)CCN(CCCC2CCCC2)CC1 | > 47.3
CCCCC(=O)Nc1ccc(C(=O)NCCN2CCOCC2)cc1 | > 50
O=C(CN1CCN(c2ccc(O)cc2)CC1)N1CCc2ccccc21 | 5 (≈ 14.8 µM)
COc1ccc(C(CNC(=O)c2cc(S(=O)(=O)NCc3ccco3)ccc2C)N(C)C)cc1 (configuration not stated) | > 70.7
NS(=O)(=O)c1ccc(NC(=O)c2c(F)cccc2Cl)cc1 | 13.3 (≈ 40.5 µM)
O=C(COc1ccc(Cl)cc1)NCc1ccccc1 | 25.6 (≈ 92.8 µM)
CCOC(=O)CCCNC(=O)CCNC(=O)c1ccc(OCC(C)C)cc1 | > 56.8
CN1CCN(c2nc(-c3ccccc3Cl)nc3ccccc23)CC1 | > 50.8
CC(OC(=O)CCc1c[nH]c2ccccc12)C(=O)c1ccccc1 (configuration not stated) | 12.7 (≈ 39.5 µM)
CCN(CC)c1cccc(OC(=O)c2cccnc2Cl)c1 | 6.8 (≈ 22.3 µM)

Now from value to molecule:

solubility kinetic [µg/mL] | SMILES
> 72.7 | NS(=O)(=O)c1ccc(CCNC(=O)CN2CCN(S(=O)(=O)c3ccccc3F)CC2)cc1
> 50.3 | COC(=O)c1ccc(NC(=S)NCCCN2CCCC2=O)cc1
3.6 (≈ 11.9 µM) | Cc1cccc(NC(=O)Cc2ccc(-c3ccccc3)cc2)n1
> 37.8 | NC(=O)CSc1nc2ccc([N+](=O)[O-])cc2[nH]1
30.1 (≈ 119 µM) | O=C(CCN1CCOCC1)Nc1ccc(F)cc1
0.5 (≈ 1.52 µM) | CC1CCN(c2ccccc2NC(=O)c2ccc([N+](=O)[O-])o2)CC1
> 40.2 | Cc1ccccc1NC(=O)NC1CCS(=O)(=O)C1 (configuration not stated)
22.6 (≈ 66.9 µM) | CCC(C)NC(=O)c1ccc(CSCc2ccc(Cl)cc2)o1 (configuration not stated)
> 57.4 | Cn1c(N)c(N2CCCCC2)c(=O)n(CC(=O)Nc2cccc(C#N)c2)c1=O
39.9 (≈ 146 µM) | O=C(Nc1ccccc1)N1CCCC1c1cccs1 (configuration not stated)
39.5 (≈ 141 µM) | CC1CCC2(CC1)SCC(=O)N2c1ccc(F)cc1 (configuration not stated)
5.6 (≈ 18.5 µM) | Cc1cc(C)c(NC(=O)COC(=O)C2CCCCC2)c(C)c1
> 55.4 | COc1ccc(S(=O)(=O)N2CC(C)N(C(=O)N3CCOCC3)C2)cc1 (configuration not stated)
41.5 (≈ 150 µM) | CC(=O)N(C)c1ccc(NC(=O)N2CCOCC2)cc1
> 62.6 | CCOC(=O)N1CCN(C(=O)c2ccc(S(=O)(=O)Nc3ccccc3)cc2)CC1
36.5 (≈ 128 µM) | NC1=NC(=O)C(Cc2ccc(Br)cc2)S1 (configuration not stated)
1.2 (≈ 3.81 µM) | Cn1c(=O)c(-c2ccccc2[N+](=O)[O-])c(Cl)c2ccccc21
> 51.7 | CC(C)=CC(=O)OCc1csc(CC(=O)Nc2ccccc2C)n1
24.4 (≈ 104 µM) | Cc1cccc(OCCN2CCOCC2)c1C
